Tests used:
[1] = system: Ndufs4(KO) mouse model of LS; assay: Survival studies and overall disease course in Ndufs4(KO) mice; assay type: in vivo
Method: Ndufs4(+/−) mice were bred to produce Ndufs4(KO) (Ndufs4(−/−)) offspring. Mice were weaned at 20-21 days of age. Ndufs4(KO) animals were housed with a minimum of one control littermate for warmth and stimulation. Mice were weighed, and health assessed, a minimum of 3 times per week, every other day (daily for IP injected mice, see herein). Where longitudinal blood point-of-care data was collected, this was performed during these health checks. Wetted chow in a dish on the bottom of each cage, and in-cage water bottles, were provided to all cages housing Ndufs4(KO) mice following the onset of disease so that the ability to find or reach food or water was not a limiting factor for survival.
Doses of each drug was based on published data for use in animals. […] Blood and tissue concentrations reached biologically relevant levels for each of the tested inhibitors.
Pharmacologic interventions and chow formulation. Standard mouse chow was ground to a power and mixed with drugs at the doses desired (see FIGS. 4A-4L). 300 mL of 1% agar melted in sterile water was added per kilogram of powdered chow and the mixture was pelleted and baked at 37° C. for 3-5 hours to dry. Pellets were then stored at 4° C. for short term (up to 90 days) or −20° C. for long-term (up to 6 months) storage. It was previously shown that this processing had no impact on animal health or survival (Johnson et al. Front Genet. 2015; 6:247). […]
To determine whether the benefits of mTOR inhibition in Ndufs4(KO) model result from disruption of PI3K mediated signaling, animals were treated from weaning (post-natal day 21, P21) with potent, orally available, isoform specific inhibitors of the catalytic subunits of PI3K: BYL719, GSK2636771, CAL-101, and IPI-549, inhibitors of p110α, p110β, p110δ, and p110γ, respectively.

Ndufs4(KO) mice [2] = assay: Longitudinal assessment of neurological disease symptoms (clasping, ataxia, circling); assay type: in vivo, mouse
Method: Longitudinal assessments of neurological disease symptoms. Clasping, ataxia, and circling were assessed by visual scoring, as previously described. As disease progresses in the Ndufs4(KO) mice animals display intermittent/transient improvement of symptoms. […] For observational assessments, lab-wide quality control discussions occurred frequently to ensure consistency between technicians/researchers. Technicians contributed equally to each treatment group to minimize any potential bias between individuals.

Ndufs4(KO) mice [3] = assay: Point-of-care blood glucose by age; assay type: in vivo, mouse
From the text: Point-of-care glucose and lactate testing. Blood glucose and lactate measurements were collected using point-of-care meters (Prodigy Autocode® glucose meter, product #51850-3466188, Prodigy® Diabetes Care, LLC, Charlotte, NC; lactate assay meter, product #40828, Nova Biomedical, Waltham, MA) and the tail-prick method, as previously described (Stokes et al. Elife 2021; 10:e65400).

[4] = system: microglia in mixed neonatal brain-cell cultures; assay: Fraction of microglia in mixed primary brain cultures (Iba1 staining); assay type: cell-based, mouse
Method: Mixed brain cell culturing and staining. Briefly, using sterile technique, brains were removed from neonatal pups into ice-cold HBSS (Gibco cat. #14025076). Brains were washed three times in cold PBS. After the third wash, brains were minced using surgical scissors into small, fine pieces. The minced brain was centrifuged at 100 g for 5 min. Once pelleted, PBS was removed and 0.05% trypsin/EDTA (Gibco) was added. The tissue in trypsin/EDTA was then incubated at 37° C. with gentle shaking for 15-30 min, with intermittent mixing and supplemental mincing, until the solution was homogenous and without tissue segments. After incubation, the minced tissue was placed back into the centrifuge at 100 g 5 min. Pellet was washed 3× with cold PBS before adding fresh media to each tube. The tissue was further dissociated using 1000 μL pipet until the solution became cloudy. The sample was washed through a sterile 70-micron cell strainer (Corning) into a 50 mL falcon tube, then plated onto T75 poly-d-lysine coated Nunclon flasks (Nunc EasyFlask132704) at a ratio of one brain to two flasks. After 24 hours, dead cell/debris were washed and media replaced. Cells were then grown for 1 additional day, split onto multi-well plates with poly-d-lysine coated coverslips (Cellware 12 mm round coverslips) at 25% confluence with ABI-009 or pexidartinib (for dose-response) added. […]

Ndufs4(KO) mice [5] = assay: Rotarod induced seizures; assay type: in vivo, mouse
Method: Rotarod and rotarod seizures. Rotarod assays were performed using a Med Associates Inc. (Fairfax, VT) ENV-571M single lane rotarod with a black mat installed in the floor of the lane to reduce visibility of the bottom. Assays were performed by placing animals onto an already rotating rod and timing latency to fall, with a steady rotation speed set to 6 rpm (controlled by attached laptop and Med Associates software). The maximum time of each trial was 10 min, with the trial ending at that time if mice were still on the rotarod. For each assay, three trials were performed, with a minimum of 5 min between each assay. The best of the three trials was reported for the rotarod data. As detailed in the text and figure legends, rotarod was performed each 10 days of age from P30; mice in a given age group were the reported age +/−1 day.
Mice were monitored throughout each assay for seizure activity, and rotarod performance trials were ended if a seizure was observed. […]

SMILES: FC(F)(F)c1ccc(CNc2ccc(Cc3c[nH]c4ncc(Cl)cc34)cn2)cn1 [pexidartinib, 5-[(5-chloro-1H-pyrrolo[2,3-b]pyridin-3-yl)methyl]-N-[[6-(trifluoromethyl)pyridin-3-yl]methyl]pyridin-2-amine]
- lifespan of treated Ndufs4(KO) animals relative to treated control mice ([1]; 300 mg/kg/d, drug toxicity appears to limit lifespan): live as long as treated control mice
- impact on disease (overall) / disease or survival ([1]; Ndufs4(KO) mice): dramatically attenuates disease
- survival ([1]; Ndufs4(KO) mice vs untreated): dramatically extended survival
- extension of median survival ([1]; Ndufs4(KO) mice, 300 mg/kg/day in chow): 300%
- cause of death of control animals ([1]; control animals on 300 mg/kg/d): died of unknown causes with no evident illness
- survival compared to untreated Ndufs4(KO) mice ([1]; each of 100-300 mg/kg/day, dose-dependent): statistically significant increase
- overt signs of severe neurologic sequelae prior to death ([1]; majority of high dose animals): did not show overt signs of severe neurologic sequelae prior to death
- clasping, ataxia, circling endpoints compared with mTOR inhibition (Ndufs4(KO) mice [2]; 200 mg/kg/day): roughly matched mTOR inhibition
- clasping, ataxia, circling endpoints compared with mTOR inhibition (Ndufs4(KO) mice [2]; 300 mg/kg/day): performed substantially better
- neurologic disease onset and severity as measured by clasping (Ndufs4(KO) mice [2]; 100, 200, and 300 mg/kg/day): affect neurologic disease onset and severity
- onset of symptoms: forelimb clasping, ataxia, and circling (Ndufs4(KO) mice [2]; Ndufs4(KO) mice vs untreated): dose-dependently delayed the onset and reduced overall incidence
- hypoglycemia (blood glucose) (Ndufs4(KO) mice [3]): prevented
- maximum effect on microglia [4]: nearly complete depletion of microglia
- fraction of microglia present in mixed neonatal brain-cell cultures ([4]; dose-response, fixed on day 7): dose-dependently reduced
- time-to-seizure (Ndufs4(KO) mice [5]; Ndufs4(KO) mice at P30, rotarod assay): markedly reduced
- incidence of rotarod induced seizures (Ndufs4(KO) mice [5]; Ndufs4(KO) mice at P30, untreated 30%): markedly reduced
